ChEMBL document CHEMBL1201862, “PubChem BioAssay data set” (2004)
Active and inactive are the calls of the source.

Tests used:
[1] = molecular target: T1, Kappa-type opioid receptor (Homo sapiens, UniProt P41145); assay: SAR analysis of Antagonists of the Kappa Opioid Receptor (KOR) using an Image-Based Assay - Set 4. [Related pubchem assays (depositor defined):AID1777, AID1785]; assay type: functional
[2] = molecular target: T1, Kappa-type opioid receptor; assay: SAR analysis of small molecule antagonists of the kappa opioid receptor via a luminescent beta-arrestin assay - Set 3. [Related pubchem assays (depositor defined):AID1777, AID1778, AID1785, AID1786, AID1966, AID2133, AID2136, AID2285, AID2495]; assay type: functional
[3] = molecular target: Mu-type opioid receptor (Homo sapiens, UniProt P35372); assay: SAR Analysis of Antagonists of the MOR Receptor using an Image-Based Assay - Set 3. [Related pubchem assays (depositor defined):AID1777, AID1785, AID1786, AID1966, AID2133, AID2136, AID2284, AID2285, AID2420]; assay type: functional
[4] = molecular target: Delta-type opioid receptor (Homo sapiens, UniProt P41143); assay: SAR Analysis of Antagonists of the DOR Receptor using an Image-Based Assay - Set 3. [Related pubchem assays (depositor defined):AID1777, AID1785]; assay type: functional;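 further: U2OS cells expressing DOR1 and beta-arrestin GFP stimulated with 100 nM SNC80; imaging of GFP-tagged beta-arrestin moving into spots after receptor activation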
[5] = molecular target: T2, G-protein coupled receptor 55 (Homo sapiens, UniProt Q9Y2T6); assay: GPR55 antagonists blocking LPI-driven arrestin recruitment, primary screen, imaging, U2OS, beta-arrestin-GFP, LPI agonist (AID 2013); assay type: functional;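 further: antagonist potency measured as reduced agonist-driven arrestin aggregation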
[6] = molecular target: T3, Type-1 angiotensin II receptor (Homo sapiens, UniProt P30556); assay: AT1 receptor agonists, dose response, selectivity assay for APJ receptor agonist project, cell-based, uHTS hits (AID 488865); assay type: functional;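 further: beta-arrestin recruitment to AT1 measured by enzyme fragment complementation luminescence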
T3 sequence (P30556 whole entry): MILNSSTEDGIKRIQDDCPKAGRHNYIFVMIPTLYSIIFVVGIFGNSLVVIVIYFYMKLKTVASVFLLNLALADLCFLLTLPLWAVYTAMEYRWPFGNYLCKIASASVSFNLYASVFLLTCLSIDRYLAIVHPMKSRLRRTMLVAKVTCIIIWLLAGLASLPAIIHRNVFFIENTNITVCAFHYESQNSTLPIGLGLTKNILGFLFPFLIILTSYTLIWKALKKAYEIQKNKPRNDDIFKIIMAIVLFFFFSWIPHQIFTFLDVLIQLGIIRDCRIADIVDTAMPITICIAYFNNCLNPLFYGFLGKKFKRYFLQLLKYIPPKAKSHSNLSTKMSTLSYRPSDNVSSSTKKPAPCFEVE

[7] = test system: H9c2; assay: cells; assay type: functional, cell-based; conditions: Rattus norvegicus, H9c2, Myocardium;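 further: confirmatory concentration-response retest of ultra-high-throughput screening hits for modulation of myocardial damage; cell death induced by hydrogen peroxide oxidative stress; compound pretreatment for 60 min then peroxide exposure for 2 h; potency is for protecting the cells against peroxide damage rather than for killing them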
[8] = molecular target: T4, Voltage-gated N-type calcium channel alpha-1B subunit/Amyloid beta A4 precursor protein-binding family A member 1 (Homo sapiens, UniProt Q00975+Q02410); assay type: protein assay
[9] = molecular target: T4, Voltage-gated N-type calcium channel alpha-1B subunit/Amyloid beta A4 precursor protein-binding family A member 1; assay type: protein assay; remark: listed apart in the source
[10] = molecular target: T5, Caspase-3 (Homo sapiens, UniProt P42574); assay: procaspase-3 activators, dose response, biochemical, absorbance (AID 489014)
T5 sequence (P42574 whole entry): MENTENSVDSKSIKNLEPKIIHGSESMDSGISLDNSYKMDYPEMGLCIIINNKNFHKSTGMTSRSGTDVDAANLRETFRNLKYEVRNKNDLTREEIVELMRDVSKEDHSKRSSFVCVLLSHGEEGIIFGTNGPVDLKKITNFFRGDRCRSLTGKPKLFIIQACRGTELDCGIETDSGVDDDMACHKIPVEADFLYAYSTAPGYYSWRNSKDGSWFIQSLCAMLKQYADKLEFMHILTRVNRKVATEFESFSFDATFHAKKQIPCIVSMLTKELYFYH

[11] = cells; assay type: functional
[12] = molecular target: Caspase-7 (Homo sapiens, UniProt P55210); assay: procaspase-7 activators, dose response, counter-screen for procaspase-3 activator project, biochemical, absorbance (AID 489013)
[13] = molecular target: T6, Polyadenylate-binding protein 1 (Homo sapiens, UniProt P11940); assay: PABP1 MLLE–PAM2 interaction inhibitors, dose response, miRNA deadenylation inhibitor project, biochemical, fluorescence polarization, Cy5-PAM2 peptide, secondary (AID 602260); assay type: functional; conditions: read-out: IC50_Mean
[14] = molecular target: T6, Polyadenylate-binding protein 1; assay: PABP1 MLLE–PAM2 binding inhibitor potency, dose response, biochemical, fluorescence polarization, FITC-PAM2 peptide (AID 602259); assay type: functional; conditions: read-out: IC50_Mean
[15] = molecular target: T2, G-protein coupled receptor 55; assay: GPR55 agonists via beta-arrestin recruitment, primary screen, imaging, U2OS cells, beta-arrestin-GFP redistribution (AID 1961); assay type: functional
[16] = molecular target: T7, Intestinal-type alkaline phosphatase (Homo sapiens, UniProt P09923); assay: human intestinal alkaline phosphatase activators, dose response, biochemical, luminescence, uHTS hits (AID 463120); assay type: functional
[17] = molecular target: Intestinal-type alkaline phosphatase (Mus musculus, UniProt P24822); assay: PubChem AID 488875; assay type: functional
[18] = molecular target: T8, Alkaline phosphatase, tissue-nonspecific isozyme (Homo sapiens, UniProt P05186); assay: TNAP enzyme activators, dose response, selectivity assay for human IAP activator project, biochemical, TNAP isozyme, human IAP uHTS hits (AID 488886); assay type: functional;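 further: potency of compounds raising TNAP activity as a selectivity check on IAP activators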
T8 sequence (P05186 whole entry): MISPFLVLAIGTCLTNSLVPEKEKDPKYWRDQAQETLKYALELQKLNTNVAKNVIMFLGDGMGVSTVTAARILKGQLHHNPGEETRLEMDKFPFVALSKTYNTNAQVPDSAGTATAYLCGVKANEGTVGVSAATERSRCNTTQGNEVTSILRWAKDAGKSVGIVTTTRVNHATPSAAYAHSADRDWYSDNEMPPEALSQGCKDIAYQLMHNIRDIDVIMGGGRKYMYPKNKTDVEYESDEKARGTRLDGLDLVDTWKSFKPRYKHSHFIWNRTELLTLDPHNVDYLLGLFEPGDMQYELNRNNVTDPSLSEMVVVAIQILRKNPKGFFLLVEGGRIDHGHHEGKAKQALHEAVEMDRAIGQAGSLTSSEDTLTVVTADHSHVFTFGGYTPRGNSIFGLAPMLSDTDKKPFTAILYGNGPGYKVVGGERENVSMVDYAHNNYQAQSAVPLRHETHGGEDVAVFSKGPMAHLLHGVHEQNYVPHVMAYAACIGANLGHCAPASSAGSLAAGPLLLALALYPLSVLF

[19] = molecular target: T7, Intestinal-type alkaline phosphatase; assay: human IAP activators, dose response, biochemical, luminescent, uHTS hits, set 2 (AID 488817); assay type: functional;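 further: potency of activators that raise enzyme activity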
[20] = HEp-2 cell cytotoxicity, dose response, cytotoxicity control for RSV inhibitor project, HTS (AID 2410); assay type: functional; conditions: human respiratory syncytial virus
[21] = growth suppression of beta-catenin-knockout colon cells, dose response, cell-based, HCT116, human colon tumor (AID 1045); assay type: functional;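 further: HCT116 colon tumor cells with beta catenin knocked out; cells exposed to compound for 60 hours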
[22] = molecular target: Paired box protein Pax-8 (Homo sapiens, UniProt Q06710); assay: inhibitors of PAX8-driven TPO luciferase reporter, dose response, RMG-I cells, cherry-pick (AID 687027); assay type: functional, cell-based;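 further: luciferase reporter driven by Pax8 target thyroperoxidase promoter measured by SteadyGlo luminescence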
[23] = molecular target: T9, Protein RecA (Mycobacterium tuberculosis, UniProt P9WHJ3); assay: Fluorescence Cell-Free Homogeneous Dose Retest to Identify Inhibitors of RecA-Intein Splicing Activity. [Related pubchem assays (depositor defined):AID2097, AID2223, AID489010, AID492950]; assay type: functional
T9 sequence (P9WHJ3 whole entry): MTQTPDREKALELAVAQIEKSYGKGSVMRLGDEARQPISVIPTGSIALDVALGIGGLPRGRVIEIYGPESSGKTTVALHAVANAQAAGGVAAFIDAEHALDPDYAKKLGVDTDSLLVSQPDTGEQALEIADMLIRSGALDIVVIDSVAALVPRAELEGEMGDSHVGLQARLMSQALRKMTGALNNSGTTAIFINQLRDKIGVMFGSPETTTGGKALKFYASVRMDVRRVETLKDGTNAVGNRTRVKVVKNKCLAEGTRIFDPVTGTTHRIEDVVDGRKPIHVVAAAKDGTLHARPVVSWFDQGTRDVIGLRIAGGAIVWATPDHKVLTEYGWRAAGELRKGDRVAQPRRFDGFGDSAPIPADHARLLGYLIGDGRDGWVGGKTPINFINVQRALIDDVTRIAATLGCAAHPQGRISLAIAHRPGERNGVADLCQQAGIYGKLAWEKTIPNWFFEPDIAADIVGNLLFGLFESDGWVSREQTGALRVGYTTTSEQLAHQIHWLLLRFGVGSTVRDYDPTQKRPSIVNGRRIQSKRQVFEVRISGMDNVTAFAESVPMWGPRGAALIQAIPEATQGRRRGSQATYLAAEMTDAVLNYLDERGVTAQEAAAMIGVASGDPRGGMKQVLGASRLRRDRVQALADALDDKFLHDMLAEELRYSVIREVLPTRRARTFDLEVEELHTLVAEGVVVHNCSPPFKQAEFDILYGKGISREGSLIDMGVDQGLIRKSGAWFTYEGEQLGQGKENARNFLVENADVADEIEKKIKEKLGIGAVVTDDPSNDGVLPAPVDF

[24] = Intein inhibitors as potential Tuberculosis drugs, a cytotoxicity screen. [Related pubchem assays (depositor defined):AID2221, AID2223, AID434968, AID435010, AID449749, AID449750, AID489010]; assay type: functional
[25] = molecular target: T10, Replicative DNA helicase DnaB (Mycobacterium tuberculosis, UniProt P9WMR3); assay: DnaB intein splicing inhibitors, dose response, biochemical, cell-free fluorescence (AID 449749); assay type: functional
T10 sequence (P9WMR3 whole entry): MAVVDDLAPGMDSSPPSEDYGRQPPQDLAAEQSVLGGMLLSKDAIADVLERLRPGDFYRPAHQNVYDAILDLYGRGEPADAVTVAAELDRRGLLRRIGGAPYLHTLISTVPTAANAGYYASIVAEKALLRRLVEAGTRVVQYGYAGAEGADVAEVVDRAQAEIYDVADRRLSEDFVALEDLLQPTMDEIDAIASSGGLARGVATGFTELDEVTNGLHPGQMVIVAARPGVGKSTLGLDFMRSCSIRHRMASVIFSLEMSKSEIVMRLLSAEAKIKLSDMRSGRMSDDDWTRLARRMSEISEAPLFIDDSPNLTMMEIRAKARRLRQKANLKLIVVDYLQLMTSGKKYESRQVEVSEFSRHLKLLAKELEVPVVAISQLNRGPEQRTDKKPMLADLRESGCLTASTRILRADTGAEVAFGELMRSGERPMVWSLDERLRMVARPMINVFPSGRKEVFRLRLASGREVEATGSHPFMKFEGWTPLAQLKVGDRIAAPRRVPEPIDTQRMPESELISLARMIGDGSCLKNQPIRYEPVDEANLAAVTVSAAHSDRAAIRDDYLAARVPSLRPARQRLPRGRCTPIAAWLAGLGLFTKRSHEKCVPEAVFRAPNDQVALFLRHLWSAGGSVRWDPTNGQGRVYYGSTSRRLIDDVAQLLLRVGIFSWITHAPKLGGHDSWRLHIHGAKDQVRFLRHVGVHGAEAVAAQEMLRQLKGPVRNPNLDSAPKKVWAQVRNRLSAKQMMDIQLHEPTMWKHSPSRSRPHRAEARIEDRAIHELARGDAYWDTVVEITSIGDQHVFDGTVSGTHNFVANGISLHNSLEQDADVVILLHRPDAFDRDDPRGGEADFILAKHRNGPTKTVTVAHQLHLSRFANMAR

[26] = non-specific cell cytotoxicity, dose response, cytotoxicity control for PAX8 inhibitor project, plate reader, dry powder samples (AID 743021); assay type: functional, cell-based
[27] = cytotoxicity toward DRD oncogenic fibroblasts, dose response, cell-based, non-viral oncogenic, luminescence (AID 1934); assay type: functional; conditions: Homo sapiens
[28] = growth suppression of PTEN-null colon cells, dose response, cell-based, HCT116 PTEN knockout (AID 1047); assay type: functional;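 further: HCT116 colon tumor cells with PTEN knocked out; cells exposed to compound for 60 hours before readout; potency for loss of cell viability measured by luminescence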
[29] = test system: BJ; assay: cytotoxicity toward BJ-TERT fibroblasts, dose response, cell-based, RAS-independent, luminescence (AID 1933); assay type: functional; conditions: Homo sapiens
[30] = test system: BJ; assay: cytotoxicity toward BJ-TERT-LT-ST fibroblasts, dose response, cell-based, RAS-independent, luminescence (AID 1935); assay type: functional; conditions: Homo sapiens;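 further: BJ fibroblasts immortalized with TERT plus LT and ST oncogenes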
[31] = test system: BJ; assay: cells; assay type: functional, cell-based; conditions: Homo sapiens
[32] = test system: BJ; assay: cytotoxicity toward Ras-transformed BJeLR fibroblasts, dose response, cell-based, alamar blue fluorescence, cherrypicked samples (AID 2631); assay type: functional; conditions: Homo sapiens;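 further: confirmatory dose-response assay in RAS-dependent BJ fibroblasts engineered with TERT, LT and ST, with cytotoxicity read by fluorescence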

T1 sequence (P41145 whole entry): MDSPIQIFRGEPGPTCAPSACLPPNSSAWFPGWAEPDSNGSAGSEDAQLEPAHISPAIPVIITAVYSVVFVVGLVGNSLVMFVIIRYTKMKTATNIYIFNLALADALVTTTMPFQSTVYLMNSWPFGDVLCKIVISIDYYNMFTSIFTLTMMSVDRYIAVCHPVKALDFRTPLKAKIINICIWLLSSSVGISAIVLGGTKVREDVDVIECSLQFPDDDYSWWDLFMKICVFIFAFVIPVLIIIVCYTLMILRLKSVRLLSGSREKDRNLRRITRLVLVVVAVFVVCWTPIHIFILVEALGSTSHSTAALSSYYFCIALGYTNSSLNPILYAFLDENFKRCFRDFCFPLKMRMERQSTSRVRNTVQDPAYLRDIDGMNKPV
T7 sequence (P09923 whole entry): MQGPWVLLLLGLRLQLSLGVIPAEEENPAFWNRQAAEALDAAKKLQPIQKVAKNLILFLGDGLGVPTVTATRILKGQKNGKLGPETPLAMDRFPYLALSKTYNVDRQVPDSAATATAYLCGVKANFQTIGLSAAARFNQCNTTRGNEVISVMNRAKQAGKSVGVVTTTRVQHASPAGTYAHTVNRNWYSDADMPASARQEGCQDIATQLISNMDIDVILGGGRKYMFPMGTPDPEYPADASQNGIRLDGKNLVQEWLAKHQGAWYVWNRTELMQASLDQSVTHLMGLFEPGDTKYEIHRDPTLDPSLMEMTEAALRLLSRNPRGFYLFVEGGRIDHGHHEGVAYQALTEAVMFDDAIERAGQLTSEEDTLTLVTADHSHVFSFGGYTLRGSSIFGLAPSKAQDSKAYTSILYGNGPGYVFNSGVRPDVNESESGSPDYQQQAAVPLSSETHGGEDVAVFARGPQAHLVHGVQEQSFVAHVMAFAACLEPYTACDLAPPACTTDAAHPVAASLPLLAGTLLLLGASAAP
T4 sequence (Q00975 whole entry): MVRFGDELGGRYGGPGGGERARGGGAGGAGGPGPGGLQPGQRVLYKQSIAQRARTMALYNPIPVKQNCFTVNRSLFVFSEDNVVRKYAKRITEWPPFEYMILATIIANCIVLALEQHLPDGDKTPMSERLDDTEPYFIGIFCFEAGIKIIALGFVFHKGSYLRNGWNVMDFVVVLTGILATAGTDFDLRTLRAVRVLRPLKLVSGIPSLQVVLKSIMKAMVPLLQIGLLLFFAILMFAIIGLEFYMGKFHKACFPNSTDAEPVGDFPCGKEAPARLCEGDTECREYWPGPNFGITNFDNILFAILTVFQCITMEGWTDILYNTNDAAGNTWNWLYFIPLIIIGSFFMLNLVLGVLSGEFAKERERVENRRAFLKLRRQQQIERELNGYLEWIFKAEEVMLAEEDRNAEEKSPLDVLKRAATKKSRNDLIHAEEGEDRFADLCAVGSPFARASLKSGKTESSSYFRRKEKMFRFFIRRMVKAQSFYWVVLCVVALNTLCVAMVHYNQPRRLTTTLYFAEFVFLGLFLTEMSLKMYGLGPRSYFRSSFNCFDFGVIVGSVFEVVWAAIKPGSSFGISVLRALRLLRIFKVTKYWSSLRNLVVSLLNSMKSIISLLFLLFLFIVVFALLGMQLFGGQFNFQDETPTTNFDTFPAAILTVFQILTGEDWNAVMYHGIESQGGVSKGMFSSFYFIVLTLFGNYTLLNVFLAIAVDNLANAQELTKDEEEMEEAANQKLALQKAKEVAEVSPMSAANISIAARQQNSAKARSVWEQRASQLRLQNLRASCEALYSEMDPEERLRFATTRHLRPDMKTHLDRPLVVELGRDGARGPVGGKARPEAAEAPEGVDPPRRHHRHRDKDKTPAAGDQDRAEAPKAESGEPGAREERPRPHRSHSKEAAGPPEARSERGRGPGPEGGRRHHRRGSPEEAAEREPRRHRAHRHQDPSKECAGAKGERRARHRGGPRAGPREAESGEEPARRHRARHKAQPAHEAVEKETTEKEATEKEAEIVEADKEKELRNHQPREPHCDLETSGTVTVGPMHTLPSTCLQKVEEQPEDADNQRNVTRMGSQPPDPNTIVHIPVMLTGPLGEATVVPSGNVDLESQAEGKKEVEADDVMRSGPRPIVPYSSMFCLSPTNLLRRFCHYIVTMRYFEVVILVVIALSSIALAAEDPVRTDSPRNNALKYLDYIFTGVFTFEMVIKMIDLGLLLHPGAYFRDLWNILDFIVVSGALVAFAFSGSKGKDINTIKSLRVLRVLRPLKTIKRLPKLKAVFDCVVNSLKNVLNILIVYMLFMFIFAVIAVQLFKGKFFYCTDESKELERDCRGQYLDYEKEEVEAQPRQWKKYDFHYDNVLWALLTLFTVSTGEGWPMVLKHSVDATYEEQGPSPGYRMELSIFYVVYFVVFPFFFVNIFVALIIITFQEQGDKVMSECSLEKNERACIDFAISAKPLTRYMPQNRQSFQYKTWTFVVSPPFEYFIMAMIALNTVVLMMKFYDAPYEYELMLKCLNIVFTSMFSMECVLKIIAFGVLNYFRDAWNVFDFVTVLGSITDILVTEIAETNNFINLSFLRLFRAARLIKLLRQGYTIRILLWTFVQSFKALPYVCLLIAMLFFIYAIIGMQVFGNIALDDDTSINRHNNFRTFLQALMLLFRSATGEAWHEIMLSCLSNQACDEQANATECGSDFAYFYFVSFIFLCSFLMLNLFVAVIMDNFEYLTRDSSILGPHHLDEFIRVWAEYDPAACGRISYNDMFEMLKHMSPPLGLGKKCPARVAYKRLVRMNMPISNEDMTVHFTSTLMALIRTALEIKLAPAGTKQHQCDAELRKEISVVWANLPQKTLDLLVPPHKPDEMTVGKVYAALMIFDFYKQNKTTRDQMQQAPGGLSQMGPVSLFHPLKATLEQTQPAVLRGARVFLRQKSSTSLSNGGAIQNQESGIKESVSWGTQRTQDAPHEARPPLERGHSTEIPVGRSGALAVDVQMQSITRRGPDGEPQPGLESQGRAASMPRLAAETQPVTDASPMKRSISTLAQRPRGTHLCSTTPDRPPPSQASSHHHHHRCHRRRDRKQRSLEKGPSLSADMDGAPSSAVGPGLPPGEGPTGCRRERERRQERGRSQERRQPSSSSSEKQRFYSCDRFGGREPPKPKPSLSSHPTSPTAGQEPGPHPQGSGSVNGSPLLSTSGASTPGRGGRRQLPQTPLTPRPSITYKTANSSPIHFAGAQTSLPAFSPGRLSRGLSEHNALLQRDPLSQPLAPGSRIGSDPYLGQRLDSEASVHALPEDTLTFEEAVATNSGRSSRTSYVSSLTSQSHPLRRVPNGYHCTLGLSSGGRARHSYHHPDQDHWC
T4 sequence (Q02410 whole entry): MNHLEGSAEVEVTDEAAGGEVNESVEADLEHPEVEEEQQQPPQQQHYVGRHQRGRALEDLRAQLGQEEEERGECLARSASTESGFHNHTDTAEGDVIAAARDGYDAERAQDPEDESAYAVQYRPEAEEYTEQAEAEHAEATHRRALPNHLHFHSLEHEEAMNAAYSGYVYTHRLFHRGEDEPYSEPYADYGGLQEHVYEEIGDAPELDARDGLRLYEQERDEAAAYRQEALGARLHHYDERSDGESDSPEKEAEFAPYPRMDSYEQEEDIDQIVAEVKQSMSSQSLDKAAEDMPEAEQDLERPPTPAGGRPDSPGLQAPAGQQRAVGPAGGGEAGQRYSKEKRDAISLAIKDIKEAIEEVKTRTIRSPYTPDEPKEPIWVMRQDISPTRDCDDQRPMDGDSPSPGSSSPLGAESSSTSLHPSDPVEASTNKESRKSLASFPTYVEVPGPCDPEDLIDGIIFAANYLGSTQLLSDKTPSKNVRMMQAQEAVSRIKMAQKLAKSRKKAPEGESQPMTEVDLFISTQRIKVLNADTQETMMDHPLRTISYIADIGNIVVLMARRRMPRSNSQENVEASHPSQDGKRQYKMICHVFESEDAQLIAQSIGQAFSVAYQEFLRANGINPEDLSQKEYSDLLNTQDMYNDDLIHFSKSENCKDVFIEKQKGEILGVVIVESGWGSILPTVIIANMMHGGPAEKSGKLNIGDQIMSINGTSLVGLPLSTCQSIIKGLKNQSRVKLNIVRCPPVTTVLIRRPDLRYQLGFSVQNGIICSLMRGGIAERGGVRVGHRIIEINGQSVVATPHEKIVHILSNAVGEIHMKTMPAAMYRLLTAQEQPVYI
T2 sequence (Q9Y2T6 whole entry, the tested form may be a part): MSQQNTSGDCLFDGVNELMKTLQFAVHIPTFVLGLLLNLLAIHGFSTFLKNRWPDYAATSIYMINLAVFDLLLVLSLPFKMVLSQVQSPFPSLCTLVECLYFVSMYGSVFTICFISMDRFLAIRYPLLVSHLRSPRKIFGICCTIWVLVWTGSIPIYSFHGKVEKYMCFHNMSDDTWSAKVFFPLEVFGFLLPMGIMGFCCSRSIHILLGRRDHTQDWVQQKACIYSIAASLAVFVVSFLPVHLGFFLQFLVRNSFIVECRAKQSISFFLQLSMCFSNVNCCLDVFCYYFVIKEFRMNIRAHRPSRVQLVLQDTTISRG
T6 sequence (P11940 whole entry): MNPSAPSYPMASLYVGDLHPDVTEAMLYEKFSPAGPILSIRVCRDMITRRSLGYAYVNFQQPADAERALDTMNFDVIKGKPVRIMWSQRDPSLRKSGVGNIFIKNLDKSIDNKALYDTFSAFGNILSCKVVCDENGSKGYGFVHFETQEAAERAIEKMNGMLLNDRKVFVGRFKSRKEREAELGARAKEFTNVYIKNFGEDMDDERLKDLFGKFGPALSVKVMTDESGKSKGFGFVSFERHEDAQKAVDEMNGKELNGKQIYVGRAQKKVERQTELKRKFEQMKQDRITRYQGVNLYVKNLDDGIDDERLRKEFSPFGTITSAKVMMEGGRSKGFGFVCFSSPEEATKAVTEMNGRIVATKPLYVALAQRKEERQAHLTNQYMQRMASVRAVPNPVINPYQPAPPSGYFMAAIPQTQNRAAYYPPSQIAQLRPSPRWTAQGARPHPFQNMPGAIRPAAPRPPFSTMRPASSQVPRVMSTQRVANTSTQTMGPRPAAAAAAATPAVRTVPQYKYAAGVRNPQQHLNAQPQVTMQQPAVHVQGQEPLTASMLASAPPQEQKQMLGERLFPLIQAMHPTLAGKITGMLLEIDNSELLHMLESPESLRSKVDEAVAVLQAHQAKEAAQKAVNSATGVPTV

COc1ccc(N2CCN(CCCNC(=O)Cn3c(=O)c4cccn4c4cc(Br)cnc43)CC2)cc1
IC50 [1]: 0.693 µM (active) | IC50 [2]: 3.05 µM (active) | IC50 [3]: 10.3 µM (inactive) | IC50 [4]: > 32 µM (inactive)

Nc1ncc(-c2nnnn2-c2ccc(Cl)cc2)c(-c2ccc(Cl)cc2)n1
IC50 [5]: 4.61 µM (active)

CCOc1ccc2nc(O)c(CN(Cc3ccco3)C(CC)c3nnnn3Cc3ccccc3)cc2c1 (configuration not stated)
EC50 [6]: > 100 µM (inactive) | IC50 [7]: > 79 µM (inactive)

CC(=O)c1cccc(NC(=O)c2cc(-c3ccc(C)cc3)on2)c1
IC50 [8]: > 50 µM (inactive) | IC50 [9]: 15.5 µM (active)

COc1ccc(C2=NC(=O)/C(=C\c3cc(OC)c(OC)c(OC)c3)O2)cc1
EC50 [10]: 0.42 µM (active) | IC50 [11]: 1.18 µM (active) | EC50 [12]: > 85.2 µM (inactive) | IC50 [13]: > 66 µM (inactive) | IC50 [14]: > 66 µM (inactive)

NC(=S)N/N=C/c1c[nH]c2ccc(OCc3ccccc3)cc12
EC50 [15]: 0.874 µM (active)

COc1ccccc1CCNC(=O)C1CCN(c2nnc(C)c3c(C)n(-c4ccc(C)cc4)nc23)CC1
EC50 [16]: 23.1 µM (active) | EC50 [17]: > 100 µM (inactive) | EC50 [18]: 53.2 µM (active) | EC50 [19]: 65.5 µM (active) | CC50 [20]: 17.4 µM (active)

COc1ccc(N(C(=O)CCl)C(C(=O)NCCc2ccccc2)c2cccs2)cc1 (configuration not stated)
EC50 [21]: 0.986 µM (active) | AC50 [22]: 2.44 µM (active) | EC50 [23]: 0.327 µM (active) | CC50 [24]: 0.43 µM (active) | AC50 [25]: 2.64 µM (active) | AC50 [26]: 4.64 µM (active) | EC50 [27]: 2.62 µM (active) | EC50 [28]: 1.1 µM (active) | EC50 [29]: 1.22 µM (active) | EC50 [30]: 4.61 µM (active) | EC50 [31]: 2.97 µM (inconclusive) | EC50 [32]: 2.69 µM (active)
